Data published in publication PMC5557466, “Precision medicine approaches to lung adenocarcinoma with concomitant MET and HER2 amplification” (BMC Cancer, 2017).

Assays:
Format in all cases: cell-based, human
[1] = test system: 033 T PDX cells; assay: In vitro drug sensitivity assay (ATPlite cell viability, 6 days, sphere culture); conditions: for IC50: Homo sapiens, primary culture in serum-free sphere conditions; for effect on 033 T cell proliferation (in words): in vitro drug screen
Procedure: (§1) Primary cultures of PDX cells in the serum-free sphere culture conditions were seeded in 384-well plates, at 500 cells per well. Two hours after plating, cells were treated with a drug library in three-fold and 10-point serial dilutions (n = 3, for each condition). Cells were incubated for 6 days at 37 °C, in a 5% CO2 humidified incubator, and the cell viability was analyzed using an adenosine triphosphate monitoring system based on firefly luciferase (ATPlite 1step; PerkinElmer, Waltham, MA, USA). […] The drugs were stored and diluted according to the manufacturer’s instructions. The tested concentrations for each drug were empirically derived, in order to investigate a clinically relevant spectrum of drug activities. IC50 values were calculated as an average of triplicate experiments using S+ Chip Analyzer (Samsung Electro-Mechanics Company, Ltd., Suwon, Korea). In order to investigate the effects of the treatment with targeted agents, signal transduction assays were performed using primarily cultured NSCLC PDX cells, which were maintained overnight in serum-free sphere culture conditions, without growth factors, incubated for 1 h with each inhibitor, and pulsed with original culture medium supplemented with bFGF/EGF/NRG/IGF for 15 min.

[2] = test system: 033 T cells; assay: Tumor sphere formation in 033 T cell cultures
Procedure: (§2) Xenograft tumor specimens were dissociated into single cells according to previously published protocol. Dissociated cells were cultured in Neurobasal medium-A, supplemented with N2 (×1/2; Life Technologies, Carlsbad, CA, USA), B27 (×1/2; GIBCO), basic fibroblast growth factor (bFGF; 25 ng/mL; R&D Systems, Minneapolis, MN, USA), EGF (25 ng/mL; R&D Systems, Minneapolis, MN, USA), neuregulin 1 (NRG; 10 ng/mL; R&D Systems, Minneapolis, MN, USA), and insulin-like growth factor 1 (IGF1; 100 ng/mL; R&D Systems, Minneapolis, MN, USA). Growth factors were supplemented every 3 days. When spheres appeared in the suspension culture, they were dissociated using StemPro Accutase (Life Technologies, Carlsbad, CA, USA), and reseeded in the suspension culture medium. Cells were grown in complete medium and treated with inhibitors 1 day after seeding. Five days later, the surviving cells were quantified by WST-1 staining (Roche Genentech, San Francisco, CA, USA).

[3] = test system: 033 T cells; assay: Cell proliferation time course of 033 T cells (WST-1); conditions: from day 5 onward
Procedure: as §2

[4] = test system: phosphorylation of MET; assay: Signal transduction assay, western blot; conditions: 033 T cells
Procedure: as §1

[5] = test system: phosphorylation of ERK1/2; assay: Signal transduction assay, western blot; conditions: 033 T cells
Procedure: (§3) Primary cultures of PDX cells in the serum-free sphere culture conditions were seeded in 384-well plates, at 500 cells per well. Two hours after plating, cells were treated with a drug library in three-fold and 10-point serial dilutions (n = 3, for each condition). Cells were incubated for 6 days at 37 °C, in a 5% CO2 humidified incubator, and the cell viability was analyzed using an adenosine triphosphate monitoring system based on firefly luciferase (ATPlite 1step; PerkinElmer, Waltham, MA, USA). The drug library was composed of 17 targeted agents that were included in the clinical guidelines or current clinical trials for the treatment of NSCLC (gefitinib, erlotinib, lapatinib, afatinib, neratinib, caneratinib, dacomitinib, infigratinib, vandetanib, sunitinib, imatinib, CI-1040, vemurafenib, palbociclib, crizotinib, sonidegib, buparlisib; all purchased from Selleckchem, Houston, TX, USA). The drugs were stored and diluted according to the manufacturer’s instructions. The tested concentrations for each drug were empirically derived, in order to investigate a clinically relevant spectrum of drug activities. IC50 values were calculated as an average of triplicate experiments using S+ Chip Analyzer (Samsung Electro-Mechanics Company, Ltd., Suwon, Korea). […]

[6] = test system: phosphorylation of STAT3; assay: Signal transduction assay, western blot; conditions: 033 T cells
Procedure: as §3

[7] = resistant if IC50 > 1000 nmol/L

**Q.** `CN(C)C/C=C/C(=O)Nc1cc2c(Nc3ccc(F)c(Cl)c3)ncnc2cc1O[C@H]1CCOC1` [afatinib] was tested. Which IC50 [1, 7] did it give?
**A.** 971 nM

**Q.** For `Nc1cc(C(F)(F)F)c(-c2cc(N3CCOCC3)nc(N3CCOCC3)n2)cn1` [buparlisib], which IC50 [1, 7] is on record?
**A.** 507 nM

**Q.** What does the source list for `C=CC(=O)Nc1cc2c(Nc3ccc(F)c(Cl)c3)ncnc2cc1OCCCN1CCOCC1` [canertinib]?
**A.** IC50 [1, 7]: 80 nM; effect on 033 T cell proliferation (in words) [1]: effective

**Q.** What does the source list for `C[C@@H](Oc1cc(-c2cnn(C3CCNCC3)c2)cnc1N)c1c(Cl)ccc(F)c1Cl` [crizotinib]?
**A.** IC50 [1, 7]: 691 nM; tumor sphere formation [2]: impaired tumor sphere formation; cell proliferation [3]: significantly inhibited cell proliferation; phosphorylation of MET [4]: completely abolishing; phosphorylation of ERK1/2 [5]: completely abolishing; phosphorylation of STAT3 [6]: completely abolishing

**Q.** With `C#Cc1cccc(Nc2ncnc3cc(OCCOC)c(OCCOC)cc23)c1` [erlotinib] as the compound, how does the IC50 ([1]; […]) read?
**A.** 836 nM

**Q.** How did the “effect on 033 T cell proliferation (in words)” value [1] turn out when `COc1cc2ncnc(Nc3ccc(F)c(Cl)c3)c2cc1OCCCN1CCOCC1` [gefitinib] was run?
**A.** marked inhibitory effects

**Q.** Which IC50 [1, 7] does the source give for `CS(=O)(=O)CCNCc1ccc(-c2ccc3ncnc(Nc4ccc(OCc5cccc(F)c5)c(Cl)c4)c3c2)o1` [lapatinib] here?
**A.** 1560 nM

**Q.** For `CCOc1cc2ncc(C#N)c(Nc3ccc(OCc4ccccn4)c(Cl)c3)c2cc1NC(=O)/C=C/CN(C)C` [neratinib], which IC50 ([1]; […]) is on record?
**A.** 133 nM

**Q.** What about the “effect on 033 T cell proliferation (in words)” value [1] of the same compound?
**A.** marked inhibitory effects
